Source: patent US20040266623A1, “SYNERGISTIC QUINCLORAC HERBICIDAL COMPOSITIONS” (priority 2003, published 2004)

Legend:
Experiment in all cases: Greenhouse pot test, postemergent spray, visual control rating converted to percent control
Assay type in all cases: in vivo
white clover = test system: white clover
Method: (§1) Pots of crabgrass, dandelion, white clover, and plantain grown in greenhouse soiless growth media were sprayed with a greenhouse pot sprayer at 43.46 gallons of spray solution/acre and allowed to stand in the greenhouse. Visual observation of the effects made by the herbicidal compositions on the plants in the test pots was recorded for control of crabgrass, dandelion, clover and plantain at 24 hours after treatment (HAT), 48 hours after treatment (HAT), 72 hours after treatment (HAT), 7 days after treatment (DAT), 14 days after treatment (DAT) and 21 days after treatment (DAT). A control rating scale of 1 to 9 was used to record the visual observation of the effect of the herbicidal composition on the plants over the time period of the tests. 1=no control, and 9=death of plant, with intervening numbers representing successive degrees of observed effectiveness of the herbicidal composition over time. The 1-9 control rating scale was converted to percent control in the test data charts that follow.
(§2) The test protocol of S. R. Colby as set out in his article entitled “Calculating Synergistic and Antagonistic Responses of Herbicide Compositions,” received for publication Apr. 11, 1966, Contribution No. 3796 and Scientific Article No. 1271 of the Maryland Agricultural Experiment Station, Department pf Agronomy, University of Maryland was followed to evaluate the synergistic properties of the combination of quinclorac plus a herbicidal protox inhibitor, and a combination of quinclorac, plus a herbicidal protox inhibitor plus a herbicidal auxinic agent as compared with the individual herbicides, using Colby's formulas E=X+Y−XY/100 for a two herbicide combination, where E=the expected percent of inhibition of growth by herbicides, X=the percent inhibition of growth by herbicide A at p lb/A, and Y=the percent inhibition of growth by herbicide B at q lb/A, for a given combination of two herbicides. Colby's formula E=X+Y+Z−(XY+XZ+YZ)/100+XYZ/10,000, was used for the three-way herbicide combination evaluation, where E, X and Y are the same as in the two herbicide formula and Z=the percent inhibition of growth by the third herbicide.

dandelion = test system: dandelion
Method: as §1, §2

crabgrass = test system: crabgrass
Method: as §1, §2

Cc1nn(-c2cc(NS(C)(=O)=O)c(Cl)cc2Cl)c(=O)n1C(F)F [Sulfentrazone, reference compound]
22.2%: % Control Clover (white clover; Test 2, 24 HAT, 0.02 lbs/A) | % Control Clover (white clover; Test 2, 24 HAT, 0.03 lbs/A) | % Control Clover (white clover; Test 2, 72 HAT, 0.03 lbs/A) | % Control Dandelion (dandelion; Test 2, 24 HAT, 0.02 lbs/A) | % Control Dandelion (dandelion; Test 2, 24 HAT, 0.03 lbs/A) | % Control Crabgrass (crabgrass; Test 2, 7 DAT, 0.02 lbs/A) | % Control Crabgrass (crabgrass; Test 2, 7 DAT, 0.03 lbs/A) | % Control Crabgrass (crabgrass; Test 2, 14 DAT, 0.02 lbs/A) | % Control Crabgrass (crabgrass; Test 2, 14 DAT, 0.03 lbs/A)
77.8%: % Control Clover (white clover; Test 2, 7 DAT, 0.02 lbs/A) | % Control Clover (white clover; Test 2, 14 DAT, 0.02 lbs/A)
44.4%: % Control Dandelion (dandelion; Test 2, 72 HAT, 0.02 lbs/A) | % Control Dandelion (dandelion; Test 2, 72 HAT, 0.03 lbs/A) | % Control Crabgrass (crabgrass; Test 2, 24 HAT, 0.03 lbs/A)
88.9%: % Control Dandelion (dandelion; Test 2, 7 DAT, 0.02 lbs/A) | % Control Dandelion (dandelion; Test 2, 7 DAT, 0.03 lbs/A) | % Control Dandelion (dandelion; Test 2, 14 DAT, 0.02 lbs/A) | % Control Dandelion (dandelion; Test 2, 14 DAT, 0.03 lbs/A)
7: Control (1-9) Clover (white clover; Test 2, 7 DAT, 0.02 lbs/A) | Control (1-9) Clover (white clover; Test 2, 14 DAT, 0.02 lbs/A)
4: Control (1-9) Dandelion (dandelion; Test 2, 72 HAT, 0.02 lbs/A) | Control (1-9) Dandelion (dandelion; Test 2, 72 HAT, 0.03 lbs/A) | Control (1-9) Crabgrass (crabgrass; Test 2, 24 HAT, 0.03 lbs/A)
55.6%: % Control Clover (white clover; Test 2, 7 DAT, 0.03 lbs/A)
8: Control (1-9) Dandelion (dandelion; Test 2, 7 DAT, 0.02 lbs/A) | Control (1-9) Dandelion (dandelion; Test 2, 7 DAT, 0.03 lbs/A) | Control (1-9) Dandelion (dandelion; Test 2, 14 DAT, 0.02 lbs/A) | Control (1-9) Dandelion (dandelion; Test 2, 14 DAT, 0.03 lbs/A)
33.3%: % Control Clover (white clover; Test 2, 72 HAT, 0.02 lbs/A) | % Control Crabgrass (crabgrass; Test 2, 24 HAT, 0.02 lbs/A) | % Control Crabgrass (crabgrass; Test 2, 72 HAT, 0.02 lbs/A) | % Control Crabgrass (crabgrass; Test 2, 72 HAT, 0.03 lbs/A)
66.7%: % Control Clover (white clover; Test 2, 14 DAT, 0.03 lbs/A)
6: Control (1-9) Clover (white clover; Test 2, 14 DAT, 0.03 lbs/A)
5: Control (1-9) Clover (white clover; Test 2, 7 DAT, 0.03 lbs/A)
2: Control (1-9) Clover (white clover; Test 2, 24 HAT, 0.02 lbs/A) | Control (1-9) Clover (white clover; Test 2, 24 HAT, 0.03 lbs/A) | Control (1-9) Clover (white clover; Test 2, 72 HAT, 0.03 lbs/A) | Control (1-9) Dandelion (dandelion; Test 2, 24 HAT, 0.02 lbs/A) | Control (1-9) Dandelion (dandelion; Test 2, 24 HAT, 0.03 lbs/A) | Control (1-9) Crabgrass (crabgrass; Test 2, 7 DAT, 0.02 lbs/A) | Control (1-9) Crabgrass (crabgrass; Test 2, 7 DAT, 0.03 lbs/A) | Control (1-9) Crabgrass (crabgrass; Test 2, 14 DAT, 0.02 lbs/A) | Control (1-9) Crabgrass (crabgrass; Test 2, 14 DAT, 0.03 lbs/A)
3: Control (1-9) Clover (white clover; Test 2, 72 HAT, 0.02 lbs/A) | Control (1-9) Crabgrass (crabgrass; Test 2, 24 HAT, 0.02 lbs/A) | Control (1-9) Crabgrass (crabgrass; Test 2, 72 HAT, 0.02 lbs/A) | Control (1-9) Crabgrass (crabgrass; Test 2, 72 HAT, 0.03 lbs/A)

CC(C)CCCCCOC(=O)COc1ccc(Cl)cc1Cl [2,4-D IOE]
44.4%: % Control Clover (white clover; Test 1, 7 DAT, 0.70 lbs/A) | % Control Clover (white clover; Test 1, 48 HAT, 0.70 lbs/A) | % Control Dandelion (dandelion; Test 1, 48 HAT, 0.70 lbs/A) | % Control Crabgrass (crabgrass; Test 1, 7 DAT, 0.70 lbs/A) | % Control Crabgrass (crabgrass; Test 1, 48 HAT, 0.70 lbs/A)
1: Control (1-9) Clover (white clover; Test 1, 24 HAT, 0.70 lbs/A)
66.7%: % Control Clover (white clover; Test 2, 7 DAT, 0.70 lbs/A) | % Control Clover (white clover; Test 2, 72 HAT, 0.70 lbs/A) | % Control Dandelion (dandelion; Test 1, 7 DAT, 0.70 lbs/A) | % Control Dandelion (dandelion; Test 2, 72 HAT, 0.70 lbs/A) | % Control Crabgrass (crabgrass; Test 2, 72 HAT, 0.70 lbs/A)
2: Control (1-9) Crabgrass (crabgrass; Test 1, 24 HAT, 0.70 lbs/A) | Control (1-9) Crabgrass (crabgrass; Test 2, 7 DAT, 0.70 lbs/A) | Control (1-9) Crabgrass (crabgrass; Test 2, 14 DAT, 0.70 lbs/A)
9: Control (1-9) Clover (white clover; Test 2, 14 DAT, 0.70 lbs/A) | Control (1-9) Dandelion (dandelion; Test 1, 14 DAT, 0.70 lbs/A) | Control (1-9) Dandelion (dandelion; Test 2, 14 DAT, 0.70 lbs/A)
100.0%: % Control Clover (white clover; Test 2, 14 DAT, 0.70 lbs/A) | % Control Dandelion (dandelion; Test 1, 14 DAT, 0.70 lbs/A) | % Control Dandelion (dandelion; Test 2, 14 DAT, 0.70 lbs/A)
6: Control (1-9) Clover (white clover; Test 2, 7 DAT, 0.70 lbs/A) | Control (1-9) Clover (white clover; Test 2, 72 HAT, 0.70 lbs/A) | Control (1-9) Dandelion (dandelion; Test 1, 7 DAT, 0.70 lbs/A) | Control (1-9) Dandelion (dandelion; Test 2, 72 HAT, 0.70 lbs/A) | Control (1-9) Crabgrass (crabgrass; Test 2, 72 HAT, 0.70 lbs/A)
11.1%: % Control Clover (white clover; Test 1, 24 HAT, 0.70 lbs/A)
88.9%: % Control Clover (white clover; Test 1, 14 DAT, 0.70 lbs/A) | % Control Dandelion (dandelion; Test 2, 7 DAT, 0.70 lbs/A)
22.2%: % Control Crabgrass (crabgrass; Test 1, 24 HAT, 0.70 lbs/A) | % Control Crabgrass (crabgrass; Test 2, 7 DAT, 0.70 lbs/A) | % Control Crabgrass (crabgrass; Test 2, 14 DAT, 0.70 lbs/A)
4: Control (1-9) Clover (white clover; Test 1, 7 DAT, 0.70 lbs/A) | Control (1-9) Clover (white clover; Test 1, 48 HAT, 0.70 lbs/A) | Control (1-9) Dandelion (dandelion; Test 1, 48 HAT, 0.70 lbs/A) | Control (1-9) Crabgrass (crabgrass; Test 1, 7 DAT, 0.70 lbs/A) | Control (1-9) Crabgrass (crabgrass; Test 1, 48 HAT, 0.70 lbs/A)
8: Control (1-9) Clover (white clover; Test 1, 14 DAT, 0.70 lbs/A) | Control (1-9) Dandelion (dandelion; Test 2, 7 DAT, 0.70 lbs/A)
3: Control (1-9) Clover (white clover; Test 2, 24 HAT, 0.70 lbs/A) | Control (1-9) Dandelion (dandelion; Test 1, 24 HAT, 0.70 lbs/A) | Control (1-9) Dandelion (dandelion; Test 2, 24 HAT, 0.70 lbs/A) | Control (1-9) Crabgrass (crabgrass; Test 1, 14 DAT, 0.70 lbs/A) | Control (1-9) Crabgrass (crabgrass; Test 2, 24 HAT, 0.70 lbs/A)
33.3%: % Control Clover (white clover; Test 2, 24 HAT, 0.70 lbs/A) | % Control Dandelion (dandelion; Test 1, 24 HAT, 0.70 lbs/A) | % Control Dandelion (dandelion; Test 2, 24 HAT, 0.70 lbs/A) | % Control Crabgrass (crabgrass; Test 1, 14 DAT, 0.70 lbs/A) | % Control Crabgrass (crabgrass; Test 2, 24 HAT, 0.70 lbs/A)
